The values that follow come from US20220089592A1, “IMIDAZO[1,2-A]PYRIDINYL DERIVATIVES AS IRAK4 INHIBITORS” (priority 2019, published 2022).

SMILES strings stand for the structures.

In general, IC50 refers to the concentration needed to halve the response being measured. High values mean weaker potency in that assay, low ones greater potency in that assay.

In the test the target is T1, IRAK4 (Homo sapiens, UniProt Q9NWZ3).
T1 sequence (Q9NWZ3 1-460): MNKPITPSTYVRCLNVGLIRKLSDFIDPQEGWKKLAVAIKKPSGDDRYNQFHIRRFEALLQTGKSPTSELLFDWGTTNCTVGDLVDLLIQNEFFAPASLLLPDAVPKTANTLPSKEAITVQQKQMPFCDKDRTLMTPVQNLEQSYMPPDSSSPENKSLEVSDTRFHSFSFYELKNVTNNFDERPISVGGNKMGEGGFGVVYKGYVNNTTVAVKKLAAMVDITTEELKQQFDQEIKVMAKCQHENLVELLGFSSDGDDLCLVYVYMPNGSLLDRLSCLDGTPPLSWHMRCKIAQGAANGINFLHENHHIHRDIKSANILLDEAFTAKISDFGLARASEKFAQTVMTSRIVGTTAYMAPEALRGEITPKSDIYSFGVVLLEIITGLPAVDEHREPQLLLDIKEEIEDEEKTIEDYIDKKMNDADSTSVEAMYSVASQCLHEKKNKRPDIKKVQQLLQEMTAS
The test can be described thus: 2-hour 1 mM ATP IRAK4 Biochemical assay (as above, but with 100 pM IRAK4 and 1 mM ATP). The conditions noted are these: IRAK4 MSD BIOCHEMICAL (1 mM ATP) IC50 (μM), 100 pM IRAK4, 2 hours. A digest of the protocol:
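Run with 100 pM IRAK4 and 1 mM ATP for 2 hours, quenched with EDTA pH 8. Phosphorylated biotinylated peptide captured on streptavidin MSD plates and detected with anti-phosphothreonine antibody plus Sulfo-Tag secondary by electrochemiluminescence.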
For the compound `COc1ncccc1C(=O)Nc1cn2cc(C3CCOCC3)nc2c(OC)n1` [Example 458, 2-methoxy-N-(8-methoxy-2-(tetrahydro-2H-pyran-4-yl)imidazo[1,2-a]pyrazin-6-yl)nicotinamide 2,2,2-trifluoroacetate], the IC50 came out at 0.036 µM. This counts as double-digit nanomolar.

The compound `CCOc1ncccc1C(=O)Nc1cn2cc(C3CCOCC3)nc2c(OC)n1` [Example 459, 2-ethoxy-N-(8-methoxy-2-(tetrahydro-2H-pyran-4-yl)imidazo[1,2-a]pyrazin-6-yl)nicotinamide] came in with an IC50 of 0.022 µM.

For `CCCOc1ncccc1C(=O)Nc1cn2cc(C3CCOCC3)nc2c(OC)n1` [Example 460, N-(8-methoxy-2-(tetrahydro-2H-pyran-4-yl)imidazo[1,2-a]pyrazin-6-yl)-2-propoxynicotinamide], half-maximal inhibition (IC50) required 0.025 µM.

Consider `COc1nc(NC(=O)c2ccn(C(C)C)n2)cn2cc(C3CCOCC3)nc12` [Example 462, 1-isopropyl-N-(8-methoxy-2-(tetrahydro-2H-pyran-4-yl)imidazo[1,2-a]pyrazin-6-yl)-1H-pyrazole-3-carboxamide 2,2,2-trifluoroacetate], for which the half-inhibitory concentration (IC50) was 0.095 µM.

`CCn1ccc(C(=O)Nc2cn3cc(C4CCOCC4)nc3c(OC)n2)n1` [Example 463, 1-ethyl-N-(8-methoxy-2-(tetrahydro-2H-pyran-4-yl)imidazo[1,2-a]pyrazin-6-yl)-1H-pyrazole-3-carboxamide 2,2,2-trifluoroacetate] had an IC50 of 0.104 µM.

With `COc1nc(NC(=O)c2ccn(CC(C)C)n2)cn2cc(C3CCOCC3)nc12` [Example 464, 1-isobutyl-N-(8-methoxy-2-(tetrahydro-2H-pyran-4-yl)imidazo[1,2-a]pyrazin-6-yl)-1H-pyrazole-3-carboxamide], the half-maximal inhibitory concentration (IC50) was 0.205 µM.

In turn, `COc1ccccc1C(=O)Nc1cn2cc(C34CCC(C)(C3)OC4)nc2c(OC)n1` (stereo not shown) [Example 465, 2-methoxy-N-(8-methoxy-2-(1-methyl-2-oxabicyclo[2.2.1]heptan-4-yl)imidazo[1,2-a]pyrazin-6-yl)benzamide 2,2,2-trifluoroacetate] yielded an IC50 of 0.037 µM.

Regarding `COc1c(F)cccc1C(=O)Nc1cn2cc(C34CCC(C)(C3)OC4)nc2c(OC)n1` (stereo not shown) [Example 466, 3-fluoro-2-methoxy-N-(8-methoxy-2-(1-methyl-2-oxabicyclo[2.2.1]heptan-4-yl)imidazo[1,2-a]pyrazin-6-yl)benzamide 2,2,2-trifluoroacetate], the half-inhibitory concentration (IC50) was 0.059 µM.

`COc1nc(NC(=O)c2cccc(C)c2F)cn2cc(C34CCC(C)(C3)OC4)nc12` (stereo not shown) [Example 467, 2-fluoro-N-(8-methoxy-2-(1-methyl-2-oxabicyclo[2.2.1]heptan-4-yl)imidazo[1,2-a]pyrazin-6-yl)-3-methylbenzamide 2,2,2-trifluoroacetate]: the IC50 was 0.051 µM.

As for `COc1ncccc1C(=O)Nc1cn2cc(C34CCC(C)(C3)OC4)nc2c(OC)n1` (stereo not shown) [Example 468, 2-methoxy-N-(8-methoxy-2-(1-methyl-2-oxabicyclo[2.2.1]heptan-4-yl)imidazo[1,2-a]pyrazin-6-yl)nicotinamide 2,2,2-trifluoroacetate], the IC50 is 0.022 µM.

`COc1nc(NC(=O)c2cccc3c2OCC3)cn2cc(C34CCC(C)(C3)OC4)nc12` (stereo not shown) [Example 469, N-(8-methoxy-2-(1-methyl-2-oxabicyclo[2.2.1]heptan-4-yl)imidazo[1,2-a]pyrazin-6-yl)-2,3-dihydrobenzofuran-7-carboxamide 2,2,2-trifluoroacetate] returned an IC50 of 0.008 µM.

As for `COc1nc(NC(=O)c2cccc3ccnn23)cn2cc(C34CCC(C)(C3)OC4)nc12` (stereo not shown) [Example 470, N-(8-methoxy-2-(1-methyl-2-oxabicyclo[2.2.1]heptan-4-yl)imidazo[1,2-a]pyrazin-6-yl)pyrazolo[1,5-a]pyridine-7-carboxamide 2,2,2-trifluoroacetate], inhibition was half-maximal at 0.006 µM (IC50). The IC50 values of the last two compounds are within 1.5-fold of each other.

With `COc1nc(NC(=O)c2coc(C)n2)cn2cc(C34CCC(C)(C3)OC4)nc12` (stereo not shown) [Example 471, N-(8-methoxy-2-(1-methyl-2-oxabicyclo[2.2.1]heptan-4-yl)imidazo[1,2-a]pyrazin-6-yl)-2-methyloxazole-4-carboxamide 2,2,2-trifluoroacetate], the 50% inhibitory concentration (IC50) was 0.022 µM.

Take `COc1nc(NC(=O)c2coc(C3CC3)n2)cn2cc(C34CCC(C)(C3)OC4)nc12` (stereo not shown) [Example 472, 2-cyclopropyl-N-(8-methoxy-2-(1-methyl-2-oxabicyclo[2.2.1]heptan-4-yl)imidazo[1,2-a]pyrazin-6-yl)oxazole-4-carboxamide 2,2,2-trifluoroacetate]: the IC50 stood at 0.015 µM.

Take `CCOc1nc(NC(=O)c2coc(C)n2)cn2cc(C34COC(C)(C3)C4)nc12` [Example 473, N-(8-ethoxy-2-(1-methyl-2-oxabicyclo[2.1.1]hexan-4-yl)imidazo[1,2-a]pyrazin-6-yl)-2-methyloxazole-4-carboxamide]: half-maximal inhibition (IC50) was put at 0.031 µM.

`CCOc1nc(NC(=O)c2cccc(C)n2)cn2cc(C3CCOCC3)nc12` [Example 474, N-(8-ethoxy-2-(tetrahydro-2H-pyran-4-yl)imidazo[1,2-a]pyrazin-6-yl)-6-methylpicolinamide 2,2,2-trifluoroacetate]: the half-inhibitory concentration (IC50) was 0.025 µM.

Compound `CCOc1nc(NC(=O)c2cccc(C(F)F)n2)cn2cc(C3CCOCC3)nc12` [Example 475, 6-(difluoromethyl)-N-(8-ethoxy-2-(tetrahydro-2H-pyran-4-yl)imidazo[1,2-a]pyrazin-6-yl)picolinamide 2,2,2-trifluoroacetate] showed a half-inhibitory concentration (IC50) of 0.008 µM.

On to `CCCOc1nc(NC(=O)c2cccc(C(F)F)n2)cn2cc(C3CCOCC3)nc12` [Example 476, 6-(difluoromethyl)-N-(8-propoxy-2-(tetrahydro-2H-pyran-4-yl)imidazo[1,2-a]pyrazin-6-yl)picolinamide 2,2,2-trifluoroacetate], for which the IC50 was 0.006 µM.

For the compound `COc1ccccc1C(=O)Nc1cn2cc(C34COC(C)(C3)C4)nc2c(OC(C)C)n1` [Example 477, N-(8-isopropoxy-2-(1-methyl-2-oxabicyclo[2.1.1]hexan-4-yl)imidazo[1,2-a]pyrazin-6-yl)-2-methoxybenzamide 2,2,2-trifluoroacetate], the half-maximal inhibitory concentration (IC50) was 0.015 µM.

For the compound `Cc1cccc(C(=O)Nc2cn3cc(C45COC(C)(C4)C5)nc3c(OC(C)C)n2)c1F` [Example 478, 2-fluoro-N-(8-isopropoxy-2-(1-methyl-2-oxabicyclo[2.1.1]hexan-4-yl)imidazo[1,2-a]pyrazin-6-yl)-3-methylbenzamide 2,2,2-trifluoroacetate], half-maximal inhibition (IC50) was put at 0.012 µM. This IC50 and that of the compound before are within 1.5-fold of each other.

`COc1cc(F)ccc1C(=O)Nc1cn2cc(C34COC(C)(C3)C4)nc2c(OC(C)C)n1` [Example 479, 4-fluoro-N-(8-isopropoxy-2-(1-methyl-2-oxabicyclo[2.1.1]hexan-4-yl)imidazo[1,2-a]pyrazin-6-yl)-2-methoxybenzamide 2,2,2-trifluoroacetate] returned a half-maximal inhibitory concentration (IC50) of 0.015 µM.

The compound `CC(C)Oc1nc(NC(=O)c2cccc3ncnn23)cn2cc(C34COC(C)(C3)C4)nc12` [Example 480, N-(8-isopropoxy-2-(1-methyl-2-oxabicyclo[2.1.1]hexan-4-yl)imidazo[1,2-a]pyrazin-6-yl)-[1,2,4]triazolo[1,5-a]pyridine-5-carboxamide] returned an IC50 of 0.005 µM.

`CC(C)Oc1nc(NC(=O)c2ccnc3ccnn23)cn2cc(C34COC(C)(C3)C4)nc12` [Example 481, N-(8-isopropoxy-2-(1-methyl-2-oxabicyclo[2.1.1]hexan-4-yl)imidazo[1,2-a]pyrazin-6-yl)pyrazolo[1,5-a]pyrimidine-7-carboxamide] came in with a concentration for half-maximal inhibition (IC50) of 0.025 µM.

The compound `CC(C)Oc1nc(NC(=O)c2cnn3cccc(F)c23)cn2cc(C34COC(C)(C3)C4)nc12` [Example 482, 4-fluoro-N-(8-isopropoxy-2-(1-methyl-2-oxabicyclo[2.1.1]hexan-4-yl)imidazo[1,2-a]pyrazin-6-yl)pyrazolo[1,5-a]pyridine-3-carboxamide] gave an IC50 of 0.015 µM.

`COc1ccccc1C(=O)Nc1cn2cc(C34COC(CF)(C3)C4)nc2c(OC(C)C)n1` [Example 483, N-(2-(1-(fluoromethyl)-2-oxabicyclo[2.1.1]hexan-4-yl)-8-isopropoxyimidazo[1,2-a]pyrazin-6-yl)-2-methoxybenzamide 2,2,2-trifluoroacetate] returned a concentration for half-maximal inhibition (IC50) of 0.022 µM.

`Cc1nc(C(=O)Nc2cn3cc(C45COC(C)(C4)C5)nc3c(OC3CCC3)n2)co1` [Example 484, N-(8-cyclobutoxy-2-(1-methyl-2-oxabicyclo[2.1.1]hexan-4-yl)imidazo[1,2-a]pyrazin-6-yl)-2-methyloxazole-4-carboxamide] gave an IC50 of 0.02 µM.

`CC12CC(c3cn4cc(NC(=O)c5coc(C(F)F)n5)nc(OC5CCC5)c4n3)(CO1)C2` [Example 485, N-(8-cyclobutoxy-2-(1-methyl-2-oxabicyclo[2.1.1]hexan-4-yl)imidazo[1,2-a]pyrazin-6-yl)-2-(difluoromethyl)oxazole-4-carboxamide 2,2,2-trifluoroacetate] returned an IC50 of 0.037 µM.

Compound `Cc1nc(C(=O)Nc2cn3cc(C45CCC(C)(C4)OC5)nc3c(OC3CCC3)n2)co1` (stereo not shown) [Example 486, N-(8-cyclobutoxy-2-(1-methyl-2-oxabicyclo[2.2.1]heptan-4-yl)imidazo[1,2-a]pyrazin-6-yl)-2-methyloxazole-4-carboxamide 2,2,2-trifluoroacetate] came in with an IC50 of 0.016 µM.
